Reference: patent publication US9028845B2, “Chimeric immunomodulatory compounds and methods of using the same-IV” (Dynavax Technologies Corporation, priority 2001, dated 2015)

System: human PBMCs
Experiment: Human PBMC cytokine response assay (IFN-γ and IFN-α in cell-free medium by ELISA), with or without cPLGA;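 for IFN-α (pg/ml) mean: 20 µg/mL compound for 24 hours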;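 for IFN-γ (pg/ml) mean: 20 µg/mL compound for 24 hours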
Format: cell-based
[1] = Table 24, mean of donors 28234-28237
[2] = mean of donors 28057-28060, Table 16
[3] = mean of donors 110, 112, 119, 120, Table 14

5′-TCGACGT-3′-HEG-5′-TCGACGT-3′-HEG-5′-TCGACGT-3′-HEG-5′-TCGACGT-3′ [Compound C-71]
IFN-α (Table 24, donor 28234): 17 pg/mL | IFN-γ (Table 24, donor 28234): 30 pg/mL | IFN-α (Table 24, donor 28235): 30 pg/mL | IFN-γ (Table 24, donor 28235): 168 pg/mL | IFN-α (Table 24, donor 28236): 538 pg/mL | IFN-γ (Table 24, donor 28236): 448 pg/mL | IFN-α (Table 24, donor 28237): 1665 pg/mL | IFN-γ (Table 24, donor 28237): 1663 pg/mL | IFN-α mean [1]: 563 pg/mL | IFN-γ mean [1]: 577 pg/mL

(5′-TCGAACGTTCGA-3′ (SEQ ID NO: 155)-HEG)2-glycerol-HEG-3′-AGCTTGCAAGCT-5′ (SEQ ID NO: 155) (DNA, all phosphorothioate, methylation of C not given here; Three DNA copies joined by HEG spacers and glycerol branching, one copy inverted) [Compound C-174]
IFN-α (Example 58, 0.8 ug/ml, donor 1): 7907 pg/mL | IFN-α (Example 58, 0.8 ug/ml, donor 2): 11198 pg/mL | IFN-α (Example 58, 0.8 ug/ml, donor 3): 998 pg/mL | IFN-α (Example 58, 0.8 ug/ml, donor 4): 1752 pg/mL | IFN-α mean (Example 58, 0.8 ug/ml, mean of four individuals): 5464 pg/mL | IFN-α (Example 58, 4 ug/ml, donor 1): 5601 pg/mL | IFN-α (Example 58, 4 ug/ml, donor 2): 7845 pg/mL | IFN-α (Example 58, 4 ug/ml, donor 3): 1016 pg/mL | IFN-α (Example 58, 4 ug/ml, donor 4): 5895 pg/mL | IFN-α mean (Example 58, 4 ug/ml, mean of four individuals): 5089 pg/mL | IFN-α (Example 58, 20 ug/ml, donor 1): 1350 pg/mL | IFN-α (Example 58, 20 ug/ml, donor 2): 1176 pg/mL | IFN-α (Example 58, 20 ug/ml, donor 3): 61 pg/mL | IFN-α (Example 58, 20 ug/ml, donor 4): 837 pg/mL | IFN-α mean (Example 58, 20 ug/ml, mean of four individuals): 856 pg/mL | IFN-α from human PBMC compared with parent oligonucleotide P-17, in words (low doses (e.g., 0.8 ug/ml), four individuals): induce significantly more IFN-α

HEG-5′-TCGTCG-3′-HEG-5′-ACGTTCG-3′-HEG-5′-AGATGAT-3′-TEG [Compound C-30]
IFN-α (Table 9, donor 28089): 134 pg/mL | IFN-γ (Table 9, donor 28089): 0 pg/mL | IFN-α (Table 9, donor 28090): 29 pg/mL | IFN-γ (Table 9, donor 28090): 6 pg/mL | IFN-α (Table 9, donor 28098): 52 pg/mL | IFN-γ (Table 9, donor 28098): 12 pg/mL | IFN-α (Table 9, donor 28099): 47 pg/mL | IFN-γ (Table 9, donor 28099): 20 pg/mL | IFN-α mean (Table 9, mean of donors): 65 pg/mL | IFN-γ mean (Table 9, mean of donors): 9 pg/mL

5′-GsGs-3′-C3-5′-TCGTGC-3′-C3-5′-ATCGAT-3′-C3-5′-GCACGA-3′-C3-5′-GGsGsGsGsG-3′ (s = phosphorothioate linkages, otherwise linkages are phosphodiester) [Compound C-85]
IFN-α (Table 11, donor 28042): 0 pg/mL | IFN-γ (Table 11, donor 28042): 17 pg/mL | IFN-α (Table 11, donor 28043): 0 pg/mL | IFN-γ (Table 11, donor 28043): 13 pg/mL | IFN-α (Table 11, donor 28044): 28 pg/mL | IFN-γ (Table 11, donor 28044): 315 pg/mL | IFN-α (Table 11, donor 28045): 24 pg/mL | IFN-γ (Table 11, donor 28045): 134 pg/mL | IFN-α mean (Table 11, mean of donors): 13 pg/mL | IFN-γ mean (Table 11, mean of donors): 120 pg/mL

5′-TCGTCG-3′-(HME)15-5′-T-3′ [Compound C-14]
IFN-α (donor 28057, Table 16): 0 pg/mL | IFN-γ (donor 28057, Table 16): 3 pg/mL | IFN-α (donor 28058, Table 16): 0 pg/mL | IFN-γ (donor 28058, Table 16): 1 pg/mL | IFN-α (donor 28059, Table 16): 0 pg/mL | IFN-γ (donor 28059, Table 16): 1 pg/mL | IFN-α (donor 28060, Table 16): 0 pg/mL | IFN-γ (donor 28060, Table 16): 3 pg/mL | activity when formulated with cPLGA, in words (formulated with cPLGA): all had significant activity when formulated on cPLGA | IFN-α (pg/ml) mean [2]: 0 pg/mL | IFN-γ (pg/ml) mean [2]: 2 pg/mL | immunomodulatory activity (IFN-γ / IFN-α secretion), in words (used alone (no cPLGA)): None of the CICs was active when used alone

TMEA-(5′-TGACTGTGAACGTTCGAGATGA-3′)3 (SEQ ID NO: 139) (See Ex. 23) [Compound C-99]
IFN-α (donor 110, Table 14): 22 pg/mL | IFN-γ (donor 110, Table 14): 276 pg/mL | IFN-α (donor 112, Table 14): 4 pg/mL | IFN-γ (donor 112, Table 14): 12 pg/mL | IFN-α (donor 119, Table 14): 86 pg/mL | IFN-γ (donor 119, Table 14): 16 pg/mL | IFN-α (donor 120, Table 14): 2 pg/mL | IFN-γ (donor 120, Table 14): 40 pg/mL | IFN-γ induction when formulated with cPLGA, in words (formulated with cPLGA): induced IFN-γ only when formulated with cPLGA | IFN-α (pg/ml) mean [3]: 29 pg/mL | IFN-γ (pg/ml) mean [3]: 86 pg/mL | IFN-α induction, in words (used alone): did not induce IFN-α
